Measurements from patent publication US20130244999A1, “Substituted Heterocyclic Compounds” (Incyte Corporation, priority 2008, published 2013).
pIC50: −log10 of the molar value.

Target: T1, histamine H4 receptor (Homo sapiens, UniProt Q9H3N8)
T1 construct: expressed in transfected cells; host or cells: HEK293SFM cells (membrane preparation)
Assay: Inhibition of histamine H4 receptor (Table A1; H4 membrane binding assay)
Conditions: for pIC50: histamine H4 receptor, "> a" = exceeds experiment limit
Protocol: Recombinant HEK293SFM cells expressing human H1, H2, H3, H4 or mouse H4 were harvested (Packard Filtermate Harvester) in ice-cold Tris-HCl, (50 mM, pH 7.5, Sigma) with protease inhibitors (Roche) and homogenized with a Polytron homogenizer. The homogenate was centrifuged for 5 minutes at 1000 g to remove nuclei and unbroken cells. The supernatant was centrifuged at 50000 g for 30 minutes, and the resulting pellet was re-suspended in ice-cold Tris-HCl (50 mM, pH 7.5). […] Nonspecific binding was determined by inclusion of 1000× unlabeled ligands. The bound radioactivity was separated by filtration through polyethyleneimine-treated GF/B filters (Perkin Elmer). The filters were washed eight times with ice-cold Tris-HCl (50 mM, pH 7.5), and radioactivity retained on the filters was measured by liquid scintillation counting. The binding data were evaluated with Prism. […]

Row | pIC50 | inhibition at 1 µM [%] | Compound
1 | 6.97 | – | CC1Cc2ccc(-c3ccnc(C(=O)N4CC[C@H](O)C4)c3)cc2CN1c1cc(N2CCN(C)CC2)nc(N)n1 (single isomer, unassigned) [Example 65A]
2 | 7.10 | – | CC1Cc2ccc(-c3ccnc(C(=O)N4CC[C@H](O)C4)c3)cc2CN1c1cc(N2CCN(C)CC2)nc(N)n1 (single isomer, unassigned) [Example 65B]
3 | 7.62 | – | CC1Cc2ccc(-c3cnn(C4CCS(=O)(=O)C4)c3)cc2CN1c1cc(N2CCN(C)CC2)nc(N)n1 (single isomer, unassigned) [Example 98A, 4-[7-[1-(1,1-dioxidotetrahydro-3-thienyl)-1H-pyrazol-4-yl]-3-methyl-3,4-dihydroisoquinolin-2(1H)-yl]-6-(4-methylpiperazin-1-yl)pyrimidin-2-amine]
4 | 7.12 | – | CC1Cc2ccc(-c3ccc(C(=O)N[C@H](C)CO)nc3)cc2CN1c1cc(N2CCN(C)CC2)nc(N)n1 (single isomer, unassigned) [Example 51A]
5 | 7.48 | – | CC1Cc2ccc(-c3ccn(CCC#N)n3)cc2CN1c1cc(N2CCN(C)CC2)nc(N)n1 (single isomer, unassigned) [Example 83A, 3-(3-{2-[2-Amino-6-(4-methylpiperazin-1-yl)pyrimidin-4-yl]-3-methyl-1,2,3,4-tetrahydroisoquinolin-7-yl}-1H-pyrazol-1-yl)propanenitrile]
6 | 6.96 | – | CC1Cc2ccc(-c3ccnc(C(=O)N(C)C)c3)cc2CN1c1cc(N2CCN(C)CC2)nc(N)n1 (single isomer, unassigned) [Example 61A, 4-{2-[2-amino-6-(4-methylpiperazin-1-yl)pyrimidin-4-yl]-3-methyl-1,2,3,4-tetrahydroisoquinolin-7-yl}-N,N-dimethylpyridine-2-carboxamide]

More lines, now with the values behind:

Row | Compound | pIC50 | inhibition at 1 µM [%]
7 | CC(=O)Nc1ccc(-c2ccc3c(c2)CN(c2cc(N4CCN(C)CC4)nc(N)n2)CC3)cn1 [Example 3, N-(5-{2-[2-Amino-6-(4-methylpiperazin-1-yl)pyrimidin-4-yl]-1,2,3,4-tetrahydroisoquinolin-7-yl}pyridin-2-yl)acetamide] | 7.51 | –
8 | CC1Cc2ccc(-c3cnn(C(C)C)c3)cc2CN1c1cc(N2CCN(C)CC2)nc(N)n1 (single isomer, unassigned) [Example 105, 4-[7-(1-Isopropyl-1H-pyrazol-4-yl)-3-methyl-3,4-dihydroisoquinolin-2(1H)-yl]-6-(4-methylpiperazin-1-yl)pyrimidin-2-amine] | 7.28 | –
9 | CC1Cc2ccc(-c3cnn(C)c3)cc2CN1c1cc(N2CCNCC2)nc(N)n1 (stereo not shown) [Example 121, 4-[3-Methyl-7-(1-methyl-1H-pyrazol-4-yl)-3,4-dihydroisoquinolin-2 (1H)-yl]-6-piperazin-1-ylpyrimidin-2-amine] | 7.62 | –
10 | CN1CCN(c2cc(N3CCc4ccc(-c5cnn(C6CCN(C(=O)OC(C)(C)C)CC6)c5)cc4C3)nc(N)n2)CC1 [Example 12, tert-Butyl 4-(4-{2-[2-amino-6-(4-methylpiperazin-1-yl)pyrimidin-4-yl]-1,2,3,4-tetrahydroisoquinolin-7-yl}-1H-pyrazol-1-yl)piperidine-1-carboxylate] | 6.31 | –
11 | CC1Cc2ccc(C3=CCN(C(=O)NC4CCCC4)CC3)cc2CN1c1cc(N2CCN(C)CC2)nc(N)n1 (stereo not shown) [Example 136, 4-{2-[2-Amino-6-(4-methylpiperazin-1-yl)pyrimidin-4-yl]-3-methyl-1,2,3,4-tetrahydroisoquinolin-7-yl}-N-cyclopentyl-3,6-dihydropyridine-1(2H)-carboxamide] | 7.17 | –
12 | CN1CCN(c2cc(N3CCc4ccc(Oc5ccc(C#N)c(Cl)c5)cc4C3)nc(N)n2)CC1 [Example 22, 4-({2-[2-Amino-6-(4-methylpiperazin-1-yl)pyrimidin-4-yl]-1,2,3,4-tetrahydroisoquinolin-7-yl}oxy)-2-chlorobenzonitrile] | 6.44 | –
13 | CN1CCN(c2cc(N3CCc4ccc(N5CCC(c6ccc(=O)n(C)c6)CC5)cc4C3)nc(N)n2)CC1 [Example 42, 5-(1-{2-[2-Amino-6-(4-methylpiperazin-1-yl)pyrimidin-4-yl]-1,2,3,4-tetrahydroisoquinolin-7-yl}piperidin-4-yl)-1-methylpyridin-2(1H)-one] | 7.09 | –
14 | COC(=O)N1CCC(c2ccc3c(c2)CN(c2cc(N4CCN(C)CC4)nc(N)n2)C(C)C3)CC1 (stereo not shown) [Example 147, Methyl 4-{2-[2-amino-6-(4-methylpiperazin-1-yl)pyrimidin-4-yl]-3-methyl-1,2,3,4-tetrahydroisoquinolin-7-yl}piperidine-1-carboxylate] | 7.92 | –
15 | CCNC(=O)c1cccc(-c2ccc3c(c2)CN(c2cc(N4CCN(C)CC4)nc(N)n2)C(C)C3)n1 (single isomer, unassigned) [Example 158, 6-{2-[2-Amino-6-(4-methylpiperazin-1-yl)pyrimidin-4-yl]-3-methyl-1,2,3,4-tetrahydroisoquinolin-7-yl}-N-ethylpyridine-2-carboxamide] | – | 70
16 | CCNC(=O)c1ccc(-c2ccc3c(c2)CN(c2cc(N4CCN(C)CC4)nc(N)n2)C(C)C3)nc1 (single isomer, unassigned) [Example 71, 6-{2-[2-Amino-6-(4-methylpiperazin-1-yl)pyrimidin-4-yl]-3-methyl-1,2,3,4-tetrahydroisoquinolin-7-yl}-N-ethylnicotinamide] | 6.82 | –
17 | Cc1cc(-c2ccc3c(c2)CN(c2cc(N4CCN(C)CC4)nc(N)n2)CC3)cnc1C(=O)N(C)C [Example 46, 5-{2-[2-Amino-6-(4-methylpiperazin-1-yl)pyrimidin-4-yl]-1,2,3,4-tetrahydroisoquinolin-7-yl}-N,N,3-trimethylpyridine-2-carboxamide] | 6.76 | –
18 | CCS(=O)(=O)N1CCC(c2ccc3c(c2)CN(c2cc(N4CCN(C)CC4)nc(N)n2)C(C)C3)CC1 (stereo not shown) [Example 152, 4-[7-[1-(Ethylsulfonyl)piperidin-4-yl]-3-methyl-3,4-dihydroisoquinolin-2(1H)-yl]-6-(4-methylpiperazin-1-yl)pyrimidin-2-amine] | 7.75 | –
19 | CC1Cc2ccc(-c3cnn(CC4CCCC4)c3)cc2CN1c1cc(N2CCN(C)CC2)nc(N)n1 (single isomer, unassigned) [Example 109, 4-[7-[1-(Cyclopentylmethyl)-1H-pyrazol-4-yl]-3-methyl-3,4-dihydroisoquinolin-2(1H)-yl]-6-(4-methylpiperazin-1-yl)pyrimidin-2-amine] | 7.00 | –
20 | CN1CCN(c2cc(N3CCc4ccc(C(=O)N5CCC(c6ccccc6)C5)cc4C3)nc(N)n2)CC1 (stereo not shown) [Example 24, 4-(4-Methylpiperazin-1-yl)-6-[7-[(3-phenylpyrrolidin-1-yl)carbonyl]-3,4-dihydroisoquinolin-2(1H)-yl]pyrimidin-2-amine] | 6.02 | –
21 | CNC(=O)c1ccc(-c2ccc3c(c2)CN(c2cc(N4CCN(C)CC4)nc(N)n2)C(C)C3)cn1 (stereo not shown) [Example 49, 5-{2-[2-Amino-6-(4-methylpiperazin-1-yl)pyrimidin-4-yl]-3-methyl-1,2,3,4-tetrahydroisoquinolin-7-yl}-N-methylpyridine-2-carboxamide] | 7.38 | –
22 | CC1Cc2ccc(-c3cnn(CC4CCC4)c3)cc2CN1c1cc(N2CCN(C)CC2)nc(N)n1 (single isomer, unassigned) [Example 106, 4-[7-[1-(cyclobutylmethyl)-1H-pyrazol-4-yl]-3-methyl-3,4-dihydroisoquinolin-2(1H)-yl]-6-(4-methylpiperazin-1-yl)pyrimidin-2-amine] | 7.20 | –
